These results are taken from US20150353495A1 (PORTOLA PHARMACEUTICALS, INC., priority 2010, published 2015).

For one test, the target named is T1, JAK3 (Homo sapiens, UniProt P52333).
T1 construct: 5 μl of catalytic domain recombinant Kinase enzyme+Tyr peptide substrate (Invitrogen, CA); purchased Invitrogen
The experiment in a line: Z'-LYTE kinase assay JAK3. The test is classed as biochemical. Put shortly:
(§1)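 Catalytic-domain recombinant kinase was incubated with Tyr6 FRET peptide, ATP and compound (1% DMSO final) for 1 h at room temperature. Protease development followed for 1 h, cleaving only non-phosphorylated peptide. Inhibition of phosphorylation was read as coumarin/fluorescein FRET fluorescence.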

The target in another test is T2, JAK1 (Homo sapiens, UniProt P23458).
T2 construct: 5 μl of catalytic domain recombinant Kinase enzyme+Tyr peptide substrate (Invitrogen, CA); purchased Invitrogen
T2 sequence (P23458 875-1153 limits assumed): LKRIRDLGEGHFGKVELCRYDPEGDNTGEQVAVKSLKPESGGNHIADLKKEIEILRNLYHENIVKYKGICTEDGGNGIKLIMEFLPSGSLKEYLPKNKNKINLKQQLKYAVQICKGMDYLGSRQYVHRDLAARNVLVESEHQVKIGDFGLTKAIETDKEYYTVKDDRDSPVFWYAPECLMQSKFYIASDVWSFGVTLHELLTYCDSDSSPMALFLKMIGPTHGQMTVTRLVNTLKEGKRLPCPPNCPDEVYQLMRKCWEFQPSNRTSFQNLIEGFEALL
Put plainly: Z'-LYTE kinase assay JAK1. In kind it is biochemical. In a few lines:
as §1

The test system of test [1] is JAK1/3 signaling to STAT6 in Ramos B cells. The experiment in a line: IL4 stimulation of JAK1/3 signaling to STAT6 in Ramos B cells (pSTAT6 Y641, FACS). The test is classed as cell-based. Particulars: Homo sapiens; for inhibition at 0.2 µM: 0.2 uM compound, read-out: IL-4/STAT6 in Ramos Percent Inhibition at 0.2 uM; for inhibition at 1 µM: 1.0 uM compound, read-out: IL-4/STAT6 in Ramos Percent Inhibition at 1.0 uM. How it is done:
IL4 stimulation of JAK1/3 signaling to STATE in Ramos B cells:
As an alternative strategy to measure effect of JAK3 inhibitors on JAK1/3 dependent cytokine signaling pathways, IL4 stimulation of the Ramos Burkett's B cell line is used. IL4 engages a receptor consisting of the IL4 receptor alpha chain and the common gamma chain. […] Ramos B cells are suspended in tissue culture media containing 10% fetal calf serum at 10×10̂6 cells/ml. 100 μl aliquots are pre-treated for 1 hour with various concentrations of compound, and then stimulated for 15 minutes with 15 ng IL4. The signaling reaction is terminated by fixing in 2% paraformaldehyde for 10 minutes at room temperature. Fixed cells are then washed and permeablized by suspension in 100% methanol at −80° C. Following overnight incubation at 4° C., cells are washed and resuspended in PBS containing 0.5% bovine serum albumin containing pSTAT6 Y641-PE conjugated antibody. After 1 hour incubation, cells are washed and the extent of STAT6 phosphorlyation in Ramos cells is measured by FACS analysis.

In the next test the target is T3, JAK2 (Homo sapiens, UniProt O60674).
T3 construct: 5 μl of catalytic domain recombinant Kinase enzyme+Tyr peptide substrate (Invitrogen, CA); purchased Invitrogen
T3 sequence (O60674 849-1124 limits assumed): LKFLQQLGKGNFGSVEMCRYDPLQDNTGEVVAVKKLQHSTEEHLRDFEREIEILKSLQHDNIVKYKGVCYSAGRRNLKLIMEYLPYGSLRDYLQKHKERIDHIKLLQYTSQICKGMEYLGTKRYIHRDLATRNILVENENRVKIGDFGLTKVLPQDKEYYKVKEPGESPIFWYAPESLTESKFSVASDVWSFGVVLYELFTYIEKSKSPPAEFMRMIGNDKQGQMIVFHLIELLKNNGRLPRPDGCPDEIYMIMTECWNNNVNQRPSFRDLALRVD
The experiment in a line: Z'-LYTE kinase assay JAK2. In kind it is biochemical. Put shortly: as §1

The target of another test is T4, TYK2 (Homo sapiens, UniProt P29597).
T4 construct: 5 μl of catalytic domain recombinant Kinase enzyme+Tyr peptide substrate (Invitrogen, CA); purchased Invitrogen
T4 sequence (P29597 897-1176 limits assumed): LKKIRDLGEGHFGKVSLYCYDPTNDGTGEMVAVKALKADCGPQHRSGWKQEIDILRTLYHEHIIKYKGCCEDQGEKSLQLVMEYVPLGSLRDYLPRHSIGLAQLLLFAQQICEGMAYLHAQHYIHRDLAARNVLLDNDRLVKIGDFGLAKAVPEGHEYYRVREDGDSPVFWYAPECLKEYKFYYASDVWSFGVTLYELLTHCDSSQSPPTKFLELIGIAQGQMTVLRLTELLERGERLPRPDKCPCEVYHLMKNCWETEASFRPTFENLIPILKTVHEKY
The experiment in a line: Z'-LYTE kinase assay TYK2. The test is classed as biochemical. In a few lines:
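Recombinant catalytic-domain TYK2 with Tyr6 peptide in Z′-LYTE FRET format, 1% DMSO final, kinase reaction 1 h at room temperature, then protease development 1 h. Fluorescence read at 445/520 nm (excitation 400 nm), percent phosphorylation vs no-inhibitor control, IC50 from 4-parameter logistic fit.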

T1 sequence (P52333 822-1111 limits assumed): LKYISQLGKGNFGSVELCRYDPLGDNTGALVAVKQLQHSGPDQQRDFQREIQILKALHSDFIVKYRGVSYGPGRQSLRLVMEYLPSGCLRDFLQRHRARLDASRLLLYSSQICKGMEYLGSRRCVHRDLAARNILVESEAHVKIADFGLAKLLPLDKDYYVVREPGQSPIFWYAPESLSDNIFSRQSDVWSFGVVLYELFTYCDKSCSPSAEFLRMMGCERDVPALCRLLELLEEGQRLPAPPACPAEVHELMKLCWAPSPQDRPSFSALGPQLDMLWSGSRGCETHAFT

Consider `CC(=O)N1CCN(c2ccc(Nc3cc(NCc4ccccc4)c(C(N)=O)cn3)cc2)CC1` [Example 3, 6-(4-(4-acetylpiperazin-1-yl)phenylamino)-4-(benzylamino)nicotinamide], for which the IC50 lay in the range of 10 to 100 nM against JAK3, 100 to 1000 nM against JAK1, 10 to 100 nM against JAK2 and 100 to 1000 nM against TYK2. The inhibition at 0.2 µM in test [1] stood at 22%. In test [1], the inhibition at 1 µM was found to be 43%.

Take `CNC(=O)[C@H]1CCCN(c2ccc(Nc3cc(NCc4ccccc4)c(C(N)=O)cn3)cc2)C1` [Example 4, (S)-4-(benzylamino)-6-(4-(3-(methylcarbamoyl)piperidin-1-yl)phenylamino)nicotinamide]: the half-inhibitory concentration (IC50) at JAK3 lay in the range of 1 to 10 nM; at JAK1 it was 100 to 1000 nM; against JAK2, 100 to 1000 nM; on TYK2 it was 100 to 1000 nM. Also, the inhibition at 0.2 µM in test [1] was determined as 32%. Further, the inhibition at 1 µM in test [1] came to 68%.

Consider `CC(=O)N1CCN(c2ccc(Nc3cc(NCc4ccccc4)c(C(N)=O)cn3)cc2C)CC1` [Example 5, 6-(4-(4-acetylpiperazin-1-yl)-3-methylphenylamino)-4-(benzylamino)nicotinamide], for which the concentration for half-maximal inhibition (IC50) is 1 to 10 nM against JAK3, 100 to 1000 nM against JAK1, 100 to 1000 nM against JAK2 and 100 to 1000 nM on TYK2. For the same compound, the inhibition at 0.2 µM in test [1] worked out at 37%. Moreover, the inhibition at 1 µM in test [1] is 61%.

`CNC(=O)[C@@H]1CCCN(c2ccc(Nc3cc(NCc4ccccc4)c(C(N)=O)cn3)cc2)C1` [Example 6, (R)-4-(benzylamino)-6-(4-(3-(methylcarbamoyl)piperidin-1-yl)phenylamino)nicotinamide]: the half-inhibitory concentration (IC50) against JAK3 was 1 to 10 nM; against JAK1, 100 to 1000 nM; on JAK2, 100 to 1000 nM; at TYK2, 100 to 1000 nM. Besides, in test [1], the inhibition at 0.2 µM came to 39%. In addition, the inhibition at 1 µM in test [1] came out at 65%.

Turning to `CNC(=O)[C@@H]1CCCN(c2ccc(Nc3cc(N[C@H](C)c4ccccc4)c(C(N)=O)cn3)cc2)C1` [Example 8, 6-(4-((R)-3-(methylcarbamoyl)piperidin-1-yl)phenylamino)-4-((R)-1-phenylethylamino)nicotinamide], the half-inhibitory concentration (IC50) against JAK3 was 1 to 10 nM; against JAK1, 100 to 1000 nM; against JAK2, 100 to 1000 nM; on TYK2 it was > 1000 nM. The inhibition at 0.2 µM in test [1] turned out to be 8%. The inhibition at 1 µM in test [1] was 30%.

`Cc1ccc(Nc2cc(NCc3ccccc3)c(C(N)=O)cn2)cc1` [Example 10, 4-(benzylamino)-6-(p-tolylamino)nicotinamide]: the half-maximal inhibitory concentration (IC50) on JAK3 was 100 to 1000 nM; on JAK1 it was > 1000 nM; on JAK2 it was > 1000 nM; against TYK2, > 1000 nM. Further, in test [1], the inhibition at 0.2 µM came to 6%. For the same compound, the inhibition at 1 µM in test [1] came to 20%.

Take `COc1cccc(Nc2cc(NCc3ccccc3)c(C(N)=O)cn2)c1` [Example 11, 4-(benzylamino)-6-(3-methoxyphenylamino)nicotinamide]: the concentration for half-maximal inhibition (IC50) against JAK3 is 10 to 100 nM; against JAK1, > 1000 nM; against JAK2 it was > 1000 nM; against TYK2, > 1000 nM. In test [1], the inhibition at 0.2 µM amounted to 11%. Besides, the inhibition at 1 µM in test [1] was determined as 15%.

As to `COc1ccc(Nc2cc(NCc3ccccc3)c(C(N)=O)cn2)cc1` [Example 12, 4-(benzylamino)-6-(4-methoxyphenylamino)nicotinamide], the half-maximal inhibitory concentration (IC50) on JAK3 was 10 to 100 nM; at JAK1 it was > 1000 nM; against JAK2 it was 100 to 1000 nM; against TYK2 it was > 1000 nM. Also, in test [1], the inhibition at 0.2 µM turned out to be 15%. For the same compound, in test [1], the inhibition at 1 µM was 11%.

`NC(=O)c1cnc(Nc2ccc(N3CCOCC3)cc2)cc1Nc1ccc(N2CCOCC2)cc1` [Example 16, 4,6-bis(4-morpholinophenylamino)nicotinamide]: the IC50 against JAK3 was 10 to 100 nM; on JAK1, > 1000 nM; on JAK2 it was > 1000 nM; against TYK2, > 1000 nM. The inhibition at 0.2 µM in test [1] is 17%. In addition, in test [1], the inhibition at 1 µM is 46%.

On to `NC(=O)c1cnc(Nc2cccc(N3CCOCC3)c2)cc1NCc1ccccc1` [Example 31, 4-(benzylamino)-6-(3-morpholinophenylamino)nicotinamide], for which the half-maximal inhibitory concentration (IC50) at JAK3 is 1 to 10 nM; on JAK1, 100 to 1000 nM; against JAK2, 100 to 1000 nM; at TYK2 it was 100 to 1000 nM. The inhibition at 0.2 µM in test [1] was 27%. Further, the inhibition at 1 µM in test [1] was 50%.

As for `NC(=O)c1cnc(Nc2ccc(C(=O)N3CCOCC3)cc2)cc1NCc1ccccc1` [Example 40, 4-(benzylamino)-6-(4-(morpholine-4-carbonyl)phenylamino)nicotinamide], the IC50 was 1 to 10 nM against JAK3, 100 to 1000 nM against JAK1, 100 to 1000 nM against JAK2 and 100 to 1000 nM at TYK2. Also, the inhibition at 0.2 µM in test [1] was 46%. Also, the inhibition at 1 µM in test [1] amounted to 69%.

With `NC(=O)c1cnc(Nc2ccc(C(=O)N3CCCC3)cc2)cc1NCC1CCCC1` [Example 41, 4-(cyclopentylmethylamino)-6-(4-(pyrrolidine-1-carbonyl)phenylamino)nicotinamide], the 50% inhibitory concentration (IC50) lay within 10 to 100 nM on JAK3, 100 to 1000 nM at JAK1, 100 to 1000 nM against JAK2 and 10 to 100 nM against TYK2. In test [1], the inhibition at 0.2 µM came to 31%. The inhibition at 1 µM in test [1] worked out at 59%.

Regarding `NC(=O)c1cnc(Nc2ccc(C(=O)N3CCC3)cc2)cc1NCc1ccccc1` [Example 46, 6-(4-(azetidine-1-carbonyl)phenylamino)-4-(benzylamino)nicotinamide], the IC50 fell in the range of 1 to 10 nM at JAK3, 100 to 1000 nM at JAK1, 100 to 1000 nM against JAK2 and 100 to 1000 nM on TYK2. In addition, in test [1], the inhibition at 0.2 µM was 54%. Further, the inhibition at 1 µM in test [1] came to 80%.

On to `NC(=O)c1cnc(Nc2cccc(OCCN3CCCC3)c2)cc1NCc1cccc(F)c1` [Example 58, 4-(3-fluorobenzylamino)-6-(3-(2-(pyrrolidin-1-yl)ethoxy)phenylamino)nicotinamide], for which the IC50 is 1 to 10 nM against JAK3, 100 to 1000 nM at JAK1, 10 to 100 nM on JAK2 and > 1000 nM against TYK2. Also, in test [1], the inhibition at 0.2 µM stood at 33%. In addition, the inhibition at 1 µM in test [1] amounted to 60%.

For the compound `NC(=O)c1cnc(Nc2cccc(OCCN3CCCC3)c2)cc1NCc1cccnc1` [Example 60, 4-(pyridin-3-ylmethylamino)-6-(3-(2-(pyrrolidin-1-yl)ethoxy)phenylamino)nicotinamide], the half-inhibitory concentration (IC50) on JAK3 was 1 to 10 nM; against JAK1 it was 100 to 1000 nM; on JAK2, 100 to 1000 nM; on TYK2, > 1000 nM. Besides, the inhibition at 0.2 µM in test [1] turned out to be 22%. Further, in test [1], the inhibition at 1 µM stood at 40%.

For `NC(=O)c1cnc(Nc2ccc(N3CCCC3=O)c(Cl)c2)cc1NCc1cccc(F)c1` [Example 62, 6-(3-chloro-4-(2-oxopyrrolidin-1-yl)phenylamino)-4-(3-fluorobenzylamino)nicotinamide], the 50% inhibitory concentration (IC50) against JAK3 was 10 to 100 nM; against JAK1, 100 to 1000 nM; on JAK2, 100 to 1000 nM; on TYK2, > 1000 nM. The inhibition at 0.2 µM in test [1] came to 29%. For the same compound, the inhibition at 1 µM in test [1] is 42%.

Consider `COc1cc(Nc2cc(NCc3cccc(F)c3)c(C(N)=O)cn2)ccc1N1CCCC1=O` [Example 63, 4-(3-fluorobenzylamino)-6-(3-methoxy-4-(2-oxopyrrolidin-1-yl)phenylamino)nicotinamide], for which the IC50 against JAK3 was 1 to 10 nM; against JAK1 it was 100 to 1000 nM; on JAK2, 100 to 1000 nM; on TYK2, > 1000 nM. Also, in test [1], the inhibition at 0.2 µM came to 32%. The inhibition at 1 µM in test [1] was 46%.

Turning to `NC(=O)c1cnc(Nc2ccc(N3CCCCC3=O)cc2)cc1NCc1cccc(F)c1` [Example 64, 4-(3-fluorobenzylamino)-6-(4-(2-oxopiperidin-1-yl)phenylamino)nicotinamide], the IC50 against JAK3 lay in the range of 1 to 10 nM; at JAK1, 100 to 1000 nM; against JAK2, 10 to 100 nM; on TYK2, 100 to 1000 nM. In addition, the inhibition at 0.2 µM in test [1] worked out at 32%. Also, in test [1], the inhibition at 1 µM turned out to be 50%.

One may read the IC50 as the concentration that inhibits the measured activity by half. Higher therefore signals lower potency.
